Structures are written as SMILES.

Assay [1] deals with T1, catalytic domain of human Bub1 (amino acids 704-1085) (Homo sapiens, UniProt O43683).
T1 construct: catalytic domain of human Bub1 (amino acids 704-1085); His6 (N); made in house; host or cells: Hi5 insect cells
The assay can be described thus: Bub1 kinase assay (TR-FRET). Format: biochemical. To be noted: 10 μM ATP, 60 min reaction, pH 7.5; read-out: Biological Assay 1: Bub1 kinase assay median IC50. As to the method:
To this end, 100-fold concentrated compound solutions (in DMSO) were previously prepared by serial dilution (1:3.4) of 2 mM stocks in a clear low volume 384-well source microtiter plate (Greiner Bio-One, Frickenhausen, Germany), from which 50 nL of compounds were transferred into a black low volume test microtiter plate from the same supplier. […] The resulting mixture (5 μL final volume) was incubated at 22° during 60 min., and the reaction was stopped by the addition of 5 μL of an aqueous EDTA-solution (50 mM EDTA, in 100 mM HEPES pH 7.5 and 0.2% (w/v) bovine serum albumin) which also contained the TR-FRET detection reagents (0.2 μM streptavidin-XL665 [Cisbio Bioassays, Codolet, France] and 1 nM anti-phosho-Serine antibody [Merck Millipore, cat. #35-001] and 0.4 nM LANCE EU-W1024 labeled anti-mouse IgG antibody [Perkin-Elmer, product no. AD0077, alternatively a Terbium-cryptate-labeled anti-mouse IgG antibody from Cisbio Bioassays can be used]). The stopped reaction mixture was further incubated 1 h at 22° C. in order to allow the formation of complexes between peptides and detection reagents. Subsequently, the amount of product was evaluated by measurement of the resonance energy transfer from the Eu-chelate-antibody complex recognizing the Phosphoserine residue to the streptavidin-XL665 bound to the biotin moiety of the peptide. […] IC50 values were calculated by fitting the normalized inhibition data to a 4-parameter logistic equation (Minimum, Maximum, IC50, Hill; Y=Max+(Min−Max)/(1+(X/IC50)Hill)).

Assay [2] deals with HeLa human cervical tumor cells. Description: Proliferation assay (HeLa cell line). Format: cell-based. To be noted: 96 h, 4 days incubation, crystal violet, read-out: Biological Assay 2: Proliferation assay (HeLa cell line) median IC50. The method, then: Human tumour cells were originally obtained from the American Type Culture Collection (ATCC), the Deutsche Sammlung von Mikroorganismen und Zellkulturen (DSMZ, German Collection of Microorganisms and Cell Cultures), or Epo GmbH Berlin. Cultivated HeLa human cervical tumor cells (DSMZ ACC-57) were plated at a density of 3000 cells/well in a 96-well multititer plate in 200 μL of growth medium supplemented 10% fetal calf serum. After 24 hours, the cells of one plate (zero-point plate) were stained with crystal violet (see below), while the medium of the other plates was supplemented with the test substances in various concentrations (0 μM, as well as in the range of 0.001-10 μM; the final concentration of the solvent dimethyl sulfoxide was adjusted to 0.1%) using a Hewlett-Packard HP D300 Digital Dispenser. The cells were incubated for 4 days in the presence of test substances. […] After three washing cycles of the fixed cells with water, the plates were dried at room temperature. The cells were stained by adding 100 μL/measuring point of a 0.1% crystal violet solution (pH 3.0). After three washing cycles of the stained cells with water, the plates were dried at room temperature. The dye was dissolved by adding 100 μL/measuring point of a 10% acetic acid solution. […] The change of cell number, in percent, was calculated by normalization of the measured values to the absorption values of the zero-point plate (=0%) and the absorption of the untreated (0 μm) cells (=100%). The IC50 values were determined by means of a 4 parameter fit.

The test system is the same in assay [3]. Description: Proliferation Assay (HeLa+Paclitaxel). Format: cell-based. To be noted: 3 nM paclitaxel, test substance 92 hours; read-out: Biological Assay 3: Proliferation Assay (HeLa + Paclitaxel) IC50. As to the method:
Proliferation Assay (HeLa+Paclitaxel):
Cultivated HeLa human cervical tumor cells (DSMZ ACC-57) were plated at a density of 3000 cells/well in a 96-well multititer plate in 200 μL of growth medium supplemented 10% fetal calf serum. After 24 hours, the cells of one plate (zero-point plate) were stained with crystal violet (see below). The medium of the other plates was supplemented with 3 nM of paclitaxel (Sigma-Aldrich) and the cells were incubated at 37° C. After 4 hours the test substances were added in various concentrations (0 μM, as well as in the range of 0.001-10 μM; the final concentration of the solvent dimethyl sulfoxide was adjusted to 0.1%) using a Hewlett-Packard HP D300 Digital Dispenser. The cells were incubated for another 92 hours at 37° C. in the presence of test substances. […] After three washing cycles of the fixed cells with water, the plates were dried at room temperature. The cells were stained by adding 100 μL/measuring point of a 0.1% crystal violet solution (pH 3.0). After three washing cycles of the stained cells with water, the plates were dried at room temperature. The dye was dissolved by adding 100 μL/measuring point of a 10% acetic acid solution. […] The change of cell number, in percent, was calculated by normalization of the measured values to the absorption values of the zero-point plate (=0%) and the 5 absorption of the untreated (0 μm) cells (=100%). The IC50 values were determined by means of a 4 parameter fit.

The subject of assay [4] is Bub1 kinase (histone 2A phosphorylation). The assay can be described thus: H2A Formation-Assay (cell-based mechanistic assay, co-treatment with Nocodazole). To be noted: 16 h, Nocodazole 1 μg/ml together with test compound for 16 h; read-out: Biological Assay 4.1: H2A Formation IC50. The method, then: Biological Assay 4.1: Formation-Assay
Cell-Based Mechanistic Assay: Changes of Phosphorylation Status of Histone 2A by Inhibition of Kinase Activity of Bub1
This assay determines the suppression of histone 2A phosphorylation by a Bub1 kinase inhibitor during co-treatment with Nocodazole. 25000 cells (cells were ordered from ATCC) were seeded in 96 well plate for 5 h at 37° C. Cells were treated with Nocodazole (1 μg/ml) and varying concentrations (between 3 nM and 10 μM) of test compounds for 16h. Cells were fixed (20 min, Fixing solution R&D), washed three times with PBS and blocked with Odyssey blocking buffer before incubating with the primary antibody against phosphorylated H2A (5 μg/ml ABIN482721) overnight at […]. After washing, secondary IRDye-labeled antibody mix with cell stains was added for 1h and washed again with PBS. Plates were scanned with LiCor Odyssey Infrared Imager CLx at 800 nm for P-H2A and at 700 nm for cell stains Draq5/Sapphire. The quotient of 800 nm and 700 nm for Nocodazole only treated cells was set as 100% and the quotient of 800 nm and 700 nm of untreated cells was set as 0%. […] The IC50 values were determined by means of a 4 parameter fit.
(§1) Histone H2A is an immediate intracellular substrate of Bub1 kinase. Determination of the phosphorylation status of Histone H2A provides a direct measure of the intracellular activity of Bub1 kinase.

For assay [5], the system named is Bub1 kinase (pre-induced phospho-histone 2A). Description: H2A Abrogation-Assay (cell-based mechanistic assay, pre-treatment with Nocodazole). To be noted: Nocodazole 1 μg/ml 16 h, then test compound 1 h; read-out: Biological Assay 4.2: H2A Abrogation IC50. The method, then: Biological Assay 4.2: Abrogation-Assay
Cell-Based Mechanistic Assay: Changes of Phosphorylation Status of Pre-Induced Phospho-Histone 2A by Inhibition of Kinase Activity of Bub1
This assay measures the inhibition of histone 2A phosphorylation, which was induced by pre-treatment of the cells with Nocodazole, by a Bub1 kinase inhibitor. 25000 cells (cells were ordered from ATCC) were seeded in 96 well plate for 5 h at 37° C. Cells were treated with Nocodazole (1 μg/ml). After 16h varying concentrations (between 3 nM and 10 μM) of test compounds were added and the cells were incubated for another 1h. Cells were fixed (20 min, Fixing solution R&D), washed three times with PBS and blocked with Odyssey blocking buffer before incubating with the primary antibody against phosphorylated H2A (5 μg/ml ABIN482721) overnight at 2-8° C. After washing, secondary IRDye-labeled antibody mix with cell stains was added for 1h and washed again with PBS. Plates were scanned with LiCor Odyssey Infrared Imager CLx at 800 nm for P-H2A and at 700 nm for cell stains Draq5/Sapphire. The quotient of 800 nm and 700 nm for Nocodazole only treated cells was set as 100% and the quotient of 800 nm and 700 nm of untreated cells was set as 0%. […] The IC50 values were determined by means of a 4 parameter fit.
as §1

T1 sequence (O43683 704-1085): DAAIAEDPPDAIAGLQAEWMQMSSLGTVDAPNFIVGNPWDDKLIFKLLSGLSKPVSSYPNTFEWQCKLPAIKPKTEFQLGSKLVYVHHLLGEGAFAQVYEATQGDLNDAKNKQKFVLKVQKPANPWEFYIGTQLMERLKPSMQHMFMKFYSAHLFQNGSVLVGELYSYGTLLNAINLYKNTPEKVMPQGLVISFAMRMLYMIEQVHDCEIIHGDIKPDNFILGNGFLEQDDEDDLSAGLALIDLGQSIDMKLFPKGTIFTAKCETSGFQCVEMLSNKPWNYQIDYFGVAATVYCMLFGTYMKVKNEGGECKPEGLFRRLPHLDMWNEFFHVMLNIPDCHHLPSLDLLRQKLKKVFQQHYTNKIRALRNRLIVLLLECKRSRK

`COc1cnc(-c2nn(Cc3c(F)cc(OCCCO)cc3F)c3ccccc23)nc1Nc1ccnc(C)n1` [Example 2-3-3, 3-{3,5-difluoro-4-[(3-{5-methoxy-4-[(2-methylpyrimidin-4-yl)amino]pyrimidin-2-yl}-1H-indazol-1-yl)methyl]phenoxy}propan-1-ol]: the IC50 in assay [1] was 55 nM; in assay [2], above 10000 nM; in assay [3], 200 nM; in assay [4], 210 nM; in assay [5], 310 nM.
On the same counts, the results for `COc1cnc(-c2nn(Cc3c(F)cc(OCCO)cc3F)c3ccccc23)nc1Nc1ccnc(NC(=O)C2CC2)c1` [Example 2-1-15, N-{4-[(2-{1-[2,6-difluoro-4-(2-hydroxyethoxy)benzyl]-1H-indazol-3-yl}-5-methoxy-pyrimidin-4-yl)amino]pyridin-2-yl}cyclopropanecarboxamide] are 9.8 nM, above 10000 nM, 360 nM, 24 nM and 1.2 nM.
In the case of `COc1cnc(-c2nn(Cc3c(F)cc(OCCCO)cc3F)c3ccccc23)nc1Nc1ccnc(C)c1` [Example 2-3-8, 3-{3,5-difluoro-4-[(3-{5-methoxy-4-[(2-methylpyridin-4-yl)amino]pyrimidin-2-yl}-1H-indazol-1-yl)methyl]phenoxy}propan-1-ol], the IC50 was 17 nM in assay [1]; 2600 nM in assay [2]; 160 nM in assay [3]; above 1000 nM in assay [4]; above 1000 nM in assay [5].
Turning to `COc1cnc(-c2nn(Cc3c(F)cc(OC[C@H](C)CO)cc3F)c3ccccc23)nc1Nc1ccnc(C)n1` [Example 2-3-4, (2R)-3-{3,5-difluoro-4-[(3-{5-methoxy-4-[(2-methylpyrimidin-4-yl)amino]pyrimidin-2-yl}-1H-indazol-1-yl)methyl]phenoxy}-2-methylpropan-1-ol], the IC50 in assay [1] is 43 nM; in assay [2] it was above 10000 nM; in assay [3] it was 150 nM; in assay [4] it was 2.4 nM; in assay [5], 1.9 nM.
As to `COc1cnccc1Nc1nc(-c2nn(Cc3c(F)cc(OC[C@H](C)CO)cc3F)c3ccccc23)ncc1OC` [Example 2-3-7, (2R)-3-{3,5-difluoro-4-[(3-{5-methoxy-4-[(3-methoxypyridin-4-yl)amino]pyrimidin-2-yl}-1H-indazol-1-yl)methyl]phenoxy}-2-methylpropan-1-ol], the IC50 in assay [1] was 28 nM; in assay [2], 6900 nM; in assay [3], 110 nM; in assay [4] it was 63 nM; in assay [5], 0.31 nM.
The matching figures for `COc1cnc(-c2nn(Cc3c(F)cc(OCCO)cc3F)c3ccccc23)nc1Nc1ccncc1Cl` [Example 2-1-1, 2-{4-[(3-{4-[(3-chloropyridin-4-yl)amino]-5-methoxypyrimidin-2-yl}-1 H-indazol-1-yl)methyl]-3,5-difluorophenoxy}ethanol]: 13 nM, 4100 nM, 240 nM, 94 nM and 10 nM.
The matching figures for `COc1cnc(-c2nn(Cc3c(F)cc(OC[C@H](C)CO)cc3F)c3ccccc23)nc1Nc1cc(C)ncc1C` [Example 2-3-5, (2R)-3-{4-[(3-{4-[(2,5-dimethylpyridin-4-yl)amino]-5-methoxypyrimidin-2-yl}-1H-indazol-1-yl)methyl]-3,5-difluorophenoxy}-2-methylpropan-1-ol]: 58 nM, 3300 nM, 69 nM, 2 nM and above 1000 nM.
For the compound `COc1cnc(-c2nn(Cc3c(F)cc(OCCO)cc3F)c3ccccc23)nc1Nc1ccncc1C` [Example 2-1-5, 2-{3,5-difluoro-4-[(3-{5-methoxy-4-[(3-methylpyridin-4-yl)amino]pyrimidin-2-yl}-1H-indazol-1-yl)methyl]phenoxy}ethanol], the IC50 amounted to 10 nM in assay [1]; 3100 nM in assay [2]; 150 nM in assay [3]; 6.9 nM in assay [4]; 600 nM in assay [5].
On the same counts, the results for `COc1cnc(-c2nn(Cc3c(F)cc(OCCO)cc3F)c3ccccc23)nc1Nc1ccncc1F` [Example 2-1-6, 2-{3,5-difluoro-4-[(3-{4-[(3-fluoropyridin-4-yl)amino]-5-methoxypyrimidin-2-yl}-1H-indazol-1-yl)methyl]phenoxy}ethanol] are 7.7 nM, 8500 nM, 370 nM, 56 nM and 890 nM.

For the origin of these results see patent US10350206B2, “Benzyl substituted indazoles as BUB1 inhibitors” (Bayer Pharma Aktiengesellschaft, priority 2014, dated 2019).
